Values quoted from earlier work, collected in patent US8828877B2, “Etching solution and trench isolation structure-formation process employing the same” (AZ Electronic Materials USA Corp., priority 2009, dated 2014).

Experiments:
[1] = for δH: Hansen solubility parameter, strength of hydrogen bond; for Organic solvent δH: as given in Table 2 for the solvent of the etching solution
[2] = in water at 20° C.; "any" = can mix with water in any proportion

δH [1] | Organic solvent δH [1] | Saturation solubility [2] | Compound
8.6 |  | 5.0 wt % | C=CCOC(=O)CC(C)=O [Allyl acetoacetate]
4.7 |  | 5.0 wt % | CCC(=O)CC [Diethyl ketone]
8.6 |  | 32.3 wt % | COCOC [Dimethoxymethane]
5.7 |  | 32.8 wt % | COC [Dimethyl ether]
8.0 |  | 12.0 wt % | COC(C)COC(C)COC(C)=O (stereo not shown) [Dipropylene glycol monomethyl ether acetate]
7.2 |  |  | CCOC(C)=O [Ethyl acetate]
10.2 |  | 9.7 wt % | C=C(C)C(=O)O [Methacrylic acid]
7.6 |  | 25.0 wt % | COC(C)=O [Methyl acetate]
 |  | ≥ 40.0 wt % | CC(=O)C=O [Methylglyoxal]
 |  | 20.0 wt % | CCC=O [Propion aldehyde]
9.0 |  | ≥ 5.0 wt % | CCOCC(C)OC(C)=O (stereo not shown) [Propylene glycol monoethyl ether acetate]
10.5 |  | any | CCOCC(C)O (stereo not shown) [Propylene glycol monoethyl ether]
9.8 | 9.0 | 19.0 wt % | COCC(C)OC(C)=O (stereo not shown) [Propylene glycol monomethyl ether acetate]
11.6 | 10.5 |  | COCC(C)O (stereo not shown) [Propylene glycol monomethyl ether]
10.4 |  | any | COC(C)COC(C)COC(C)CO (stereo not shown) [Tripropylene glycol monomethyl ether]
16.4 | 16.4 |  | CC(C)O [isopropyl alcohol, reference compound]

Compound | δH [1] | Organic solvent δH [1] | Saturation solubility [2]
CC(C)=O [Acetone] | 7.0 | 7.0 | any
CCOCC [Diethyl ether] | 5.1 |  | 6.9 wt %
CCCCOCCOCCOC(C)=O [Diethyl glycol butyl ether acetate] | 8.2 |  | 6.5 wt %
CCCCOCCOCCO [Diethyl glycol monobutyl ether] | 10.6 |  | 6.5 wt %
COCCOC [Ethylene glycol dimethyl ether] |  |  | any
CCOCCOC(C)=O [Ethylene glycol monoethyl ether acetate] | 10.6 |  | 23.0 wt %
COCCOC(C)=O [Ethylene glycol monomethyl ether acetate] | 11.6 | 10.6 | any
COC(=O)CC(C)=O [Methyl acetoacetate] | 8.9 |  | 46.0 wt %
CCOC [Methyl ethyl ether] | 6.2 |  | ≥ 5.0 wt %
